The values below come from patent US8841294B2, “Active ingredient combinations having insecticidal and acaricidal properties” (Bayer Cropscience AG, priority 1999, dated 2014).

Assay type in all cases: in vivo
Assay [1] relates to larvae of the peach aphid (Myzus persicae). Description: Myzus test/larval mortality. The conditions noted are these: single active compound, 0.32 ppm, cabbage leaves dipped. The procedure: Myzus Test/Larval Mortality
(§1) To produce a suitable preparation of active compound, 1 part by weight of active compound is mixed with the stated amounts of solvent and emulsifier, and the concentrate is diluted with water to the desired concentrations.
Cabbage leaves (Brassica oleracea) which are heavily infested by adults and larvae of the peach aphid (Myzus persicae) are treated by being dipped into the preparation of active compound of the desired concentration.
After the desired period of time, the kill of the larvae in % is determined. 100% means that all larvae have been killed; 0% means that none of the larvae have been killed. The kill rates determined are assessed using Colby's formula.

In assay [2] the test system is peach aphid (Myzus persicae). Description: Myzus test. The conditions noted are these: single active compound, 1.6 ppm, cabbage leaves dipped. The procedure: as §1
Cabbage leaves (Brassica oleracea) which are heavily infested by the peach aphid (Myzus persicae) are treated by being dipped into the preparation of active compound of the desired concentration.
After the desired period of time, the kill in % is determined. 100% means that all animals have been killed; 0% means that none of the animals have been killed. The kill rates determined are assessed using Colby's formula.

Assay [3] has as its system cotton aphid (Aphis gossypii). Description: Aphis gossypii test. The conditions noted are these: single active compound, 1.6 ppm, cotton leaves dipped. The method, then: as §1
Cotton leaves (Gossypium hirsutum) which are heavily infested by the cotton aphid (Aphis gossypii) are treated by being dipped into the preparation of active compound of the desired concentration.
After the desired period of time, the kill in % is determined. 100% means that all aphids have been killed; 0% means that none of the aphids have been killed. The kill rates that are determined are assessed using Colby's formula.

Assay [4] relates to larvae of the cotton aphid (Aphis gossypii). Description: Aphis gossypii test/larval mortality. The settings on record: single active compound, 1.6 ppm, cotton leaves dipped. The method, then:
Aphis Gossypii Test/Larval Mortality
as §1
Cotton leaves (Gossypium hirsutum) which are heavily infested by adults and larvae of the cotton aphid (Aphis gossypii) are treated by being dipped into the preparation of active compound of the desired concentration.
After the desired period of time, the kill of larvae in % is determined. 100% means that all larvae have been killed; 0% means that none of the larvae have been killed. The kill rates that are determined are assessed using Colby's formula.

`O=[N+]([O-])/N=C1\NCCN1Cc1ccc(Cl)nc1` [Ex. (IIa)]: the “Kill rates in % after 1d (larvae)” value in assay [1] is listed as 0%. The “Kill rates in % after 1d” value in assay [2] is 70%. In addition, the “Kill rates in % after 6d” value in assay [3] is recorded as 85%. In addition, in assay [4], the “Kill rate in % after 6d (larvae)” value was found to be 80%.
Regarding `N#C/N=C1\SCCN1Cc1ccc(Cl)nc1` [Ex. (IIk)], the “Kill rates in % after 6d” value in assay [3] was 55%. Also, the “Kill rate in % after 6d (larvae)” value in assay [4] amounted to 60%.
Turning to `CCC(C)(C)C(=O)OC1=C(c2ccc(Cl)cc2Cl)C(=O)OC12CCCCC2` [Ex. (Ia)], the “Kill rates in % after 1d (larvae)” value in assay [1] is listed as 0%. Further, the “Kill rates in % after 1d” value in assay [2] was found to be 0%. Further, the “Kill rates in % after 6d” value in assay [3] stood at 0%. In addition, the “Kill rate in % after 6d (larvae)” value in assay [4] is recorded as 0%.
